Experimental data published in the supplement of paper PMC4862054.

Experiments:
Conditions in all cases: incubation time: 72 h
BT-549 [1] = test: normalised response (% of control), CellTiter-Glo; higher = more viable cells (100 = DMSO, 0 = benzethonium chloride kill control)
Method: (§1)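 DSRT, 72 h incubation, CellTox Green / CellTiter-Glo readout. Signal is normalised to DMSO and benzethonium chloride controls. Value is the normalised response at dose 3.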

CAL-85-1 [2] = test: as above
Method: as §1

BT-474 [3] = test: as above
Method: as §1

SK-BR-3 = test: as above
Method: as §1

HCC1599 [4] = test: as above
Method: as §1

HCC1937 [5] = test: as above
Method: as §1

MCF-10A [6] = test: as above
Method: as §1

MDA-MB-453 [7] = test: as above
Method: as §1

MDA-MB-468 [8] = test: as above
Method: as §1

Hs578T [9] = test: as above
Method: as §1

DU-4475 [10] = test: as above
Method: as §1

MDA-MB-231 [11] = test: as above
Method: as §1

MDA-MB-436 [12] = test: as above
Method: as §1

HCC1143 [13] = test: as above
Method: as §1

HDQ-P1 [14] = test: as above
Method: as §1

CAL-120 [15] = test: as above
Method: as §1

CAL-51 [16] = test: as above
Method: as §1

CAL-148 [17] = test: as above
Method: as §1

MFM-223 [18] = test: as above
Method: as §1

BT-549 [19] = test: normalised response (% of control), CellTox Green; higher = less cell death (100 = DMSO, 0 = benzethonium chloride kill control)
Outline: (§2)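 Breast cancer cell lines in 20 µl suspension were added to 384-well plates containing compound at 5 concentrations, spaced in 10-fold steps across a 10,000-fold range chosen for each compound, and incubated for 72 h. CellTox Green fluorescence was read at 485/520 nm, followed by CellTiter-Glo luminescence after 10 min at room temperature. Signals on each plate were normalised so that 0.1 % DMSO equals 100 and a positive kill control equals 0. Every value in the table is the normalised signal at one concentration of the series.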

CAL-85-1 [20] = test: as above
Outline: as §2

BT-474 [21] = test: as above
Outline: as §2

HCC1599 [22] = test: as above
Outline: as §2

HCC1937 [23] = test: as above
Outline: as §2

MCF-10A [24] = test: as above
Outline: as §2

MDA-MB-453 [25] = test: as above
Outline: as §2

MDA-MB-468 [26] = test: as above
Outline: as §2

Hs578T [27] = test: as above
Outline: as §2

DU-4475 [28] = test: as above
Outline: as §2

MDA-MB-231 [29] = test: as above
Outline: as §2

MDA-MB-436 [30] = test: as above
Outline: as §2

HCC1143 [31] = test: as above
Outline: as §2

CAL-120 [32] = test: as above
Outline: as §2

CAL-51 [33] = test: as above
Outline: as §2

CAL-148 [34] = test: as above
Outline: as §2

MFM-223 [35] = test: as above
Outline: as §2

HDQ-P1 [36] = test: as above
Outline: as §2

Structure (SMILES)	normalised response (BT-549 [1]) [%]	normalised response (CAL-85-1 [2]) [%]	normalised response (BT-474 [3]) [%]	normalised response (SK-BR-3) [%]	normalised response (HCC1599 [4]) [%]	normalised response (HCC1937 [5]) [%]	normalised response (MCF-10A [6]) [%]	normalised response (MDA-MB-453 [7]) [%]	normalised response (MDA-MB-468 [8]) [%]	normalised response (Hs578T [9]) [%]	normalised response (DU-4475 [10]) [%]	normalised response (MDA-MB-231 [11]) [%]	normalised response (MDA-MB-436 [12]) [%]	normalised response (HCC1143 [13]) [%]	normalised response (HDQ-P1 [14]) [%]	normalised response (CAL-120 [15]) [%]	normalised response (CAL-51 [16]) [%]	normalised response (CAL-148 [17]) [%]	normalised response (MFM-223 [18]) [%]	normalised response (BT-549 [19]) [%]	normalised response (CAL-85-1 [20]) [%]	normalised response (BT-474 [21]) [%]	normalised response (HCC1599 [22]) [%]	normalised response (HCC1937 [23]) [%]	normalised response (MCF-10A [24]) [%]	normalised response (MDA-MB-453 [25]) [%]	normalised response (MDA-MB-468 [26]) [%]	normalised response (Hs578T [27]) [%]	normalised response (DU-4475 [28]) [%]	normalised response (MDA-MB-231 [29]) [%]	normalised response (MDA-MB-436 [30]) [%]	normalised response (HCC1143 [31]) [%]	normalised response (CAL-120 [32]) [%]	normalised response (CAL-51 [33]) [%]	normalised response (CAL-148 [34]) [%]	normalised response (MFM-223 [35]) [%]	normalised response (HDQ-P1 [36]) [%]
CO[C@H]1C[C@@H]2CC[C@@H](C)[C@@](O)(O2)C(=O)C(=O)N2CCCC[C@H]2C(=O)O[C@H]([C@H](C)C[C@@H]2CC[C@@H](OP(C)(C)=O)[C@H](OC)C2)CC(=O)[C@H](C)/C=C(\C)[C@@H](O)[C@@H](OC)C(=O)[C@H](C)C[C@H](C)/C=C/C=C/C=C/1C [Ridaforolimus] (1 nM)	68.4	74.4	94	73.5	88.1	79.2	107	83.8	62.1	71.7	92.7	93.7	88.3	81.1	91.7	80.5	90.9	89.3	84.7	84.4	95.2	101	111	119	94.6	101	115	81	98.9	107	75.3	111	103	106	82.1	105	–
O=P1(N(CCCl)CCCl)NCCCO1 (stereo not given) [Cyclophosphamide] (400 nM)	104	99.9	99	109	111	94.6	103	108	102	98.9	105	98.3	97.1	98.7	99.6	97.8	93.8	102	102	101	101	98.5	98.8	93.7	–	100	–	84.3	99	107	104	116	102	92.2	89.6	87.4	–
Oc1ccc2c(c1)CC[C@H](c1ccccc1)[C@@H]2c1ccc(OCCN2CCCC2)cc1 [Lasofoxifene] (10 nM)	115	103	102	112	106	95.5	108	99.1	90.8	103	107	110	109	104	95.3	114	91.3	111	105	108	99.8	102	114	77	107	110	–	–	104	114	116	117	104	110	90.8	102	90.8
CCOC(=O)CCNc1cc(N2CCc3ccccc3CC2)nc(-c2ccccn2)n1 [GSK-J4] (1000 nM)	47.3	96.9	99.7	98.5	100	84.7	106	70.3	67.7	98.3	99.5	95.8	89.8	103	95.4	105	57.2	92.7	93.6	97.1	113	100	95.1	92.9	103	102	110	80.2	106	112	84.1	–	97	86.2	97.7	86.8	89.9
Nc1cc(C(F)(F)F)c(-c2cc(N3CCOCC3)nc(N3CCOCC3)n2)cn1 [Buparlisib] (100 nM)	110	101	97.3	91.2	111	98	88.5	97.8	92.1	99.3	95.9	93	98.2	99	95.2	96.2	88.8	101	86.9	98.1	109	99	93.5	78.7	102	91	163	104	98.6	78.2	85.7	–	96.8	94.8	93.1	96.7	96.4
CN(C)c1nc(N(C)C)nc(N(C)C)n1 [Altretamine] (100 nM)	95.4	102	98.4	112	99.9	99.2	105	105	99	106	104	99.5	99.1	97.9	98.2	103	107	106	106	89.1	103	102	104	110	101	100	123	–	104	118	102	113	106	109	106	98.5	64.1
COC(=O)c1ccc2c(c1)NC(=O)/C2=C(\Nc1ccc(N(C)C(=O)CN2CCN(C)CC2)cc1)c1ccccc1 [Nintedanib] (100 nM)	108	98.7	96.8	98.3	114	94.9	93.4	109	92.2	103	100	105	102	101	95	98.7	103	106	95.8	101	98.1	102	95.1	108	102	101	82.3	–	103	92.7	93	106	100	109	102	98.9	83.3
COc1cc2ncnc(Nc3ccc(F)c(Cl)c3)c2cc1OCCCN1CCOCC1 [Gefitinib] (100 nM)	91.8	88	96.5	94.8	82.5	93.3	59.3	96.5	96	99.5	103	106	104	103	80.8	99.4	90.7	113	101	94.8	93.8	100	102	87.2	101	101	92.2	68	99.9	70.7	98.3	116	83.3	89.6	87.3	73.2	–
COc1cc2/c(=N/c3ccc(Br)cc3F)nc[nH]c2cc1OCC1CCN(C)CC1 [Vandetanib] (10 nM)	98	90.2	87.1	82.3	85.7	94.6	78.3	72.2	87	94.5	93.2	92.5	97.2	92.1	91.7	95.7	87.1	89	86.5	98.2	101	95.4	81.1	84.5	83.3	80.8	104	–	91.9	85.3	55	91.8	97	95.5	89.6	99.1	–
